Molecules are shown by their SMILES. Like-named read-outs stand apart in the source and are kept apart here.

One experiment addresses T1, HIV protease (Human immunodeficiency virus type 1 group M subtype B, UniProt P04585).
T1 construct: an HIV-encoded enzyme known as HIV protease
The experiment in a line: biochemical. The settings on record: read-out: IC50 (concentration causing 50% inhibition of HIV protease). The source says:
The procedure is based on the capacity of the test compound to inhibit enzymatic cleavage by HIV protease of a decapeptide (the substrate) having an amino acid sequence which includes a known HIV protease cleavage site of a HIV polyprotein; see H. G. Krausslich et al., Proc. Natl. Acad. Sci. USA, 86, 807 (1989).
Anderson, S. Rakhit and C. Yoakim in the European patent application 443 560, published Aug. 28, 1991.

Experiment [1] concerns HIV (H9/HTLV-IIIB stock) in C8166 cells. Briefly: Cell culture assay: inhibition of syncytia formation in HIV-infected C8166 cells (antiviral, anti-HIV effect). The format is cell-based, HIV (HTLV-IIIB); human T4 cell line. To be noted: Human immunodeficiency virus 1; C8166 cells; H9/HTLV-IIIB, 50 times TCID50; 72 h, 37°; read-out: EC50 (concentration causing 50% inhibition of syncytia formation). From the text:
Typical of such procedures are those described by S. Harada and N. Yamamoto, Jpn. J. Cancer Res. (Gann), 76, 432 (1985), and S. Harada et al., Science, 229, 563 (1985). An assay based on the latter procedures is described in the examples hereinafter.
In addition, Tables 1 to 8 list the results for exemplified compounds of formula 1 when assayed for antiviral (anti-HIV) effects according to the following protocol which is based on a cell culture assay previously described by Harada et al., supra. Transformed cells are used because of the rapidity with which HIV will replicate in the cells.
1. The test compound is dissolved in dimethylsulfoxide to a concentration of 5 mg/mL. The resultant solution .can be stored at 4° until use.
2. The resultant solution is diluted in RPMI 1640 (Gibco Laboratories, St. Lawrence, Mass., USA) to four times (4×) the final concentration which is to be tested. Once diluted in RPMI 1640, the solution is used in the cell culture assay within 4 h.
3. The latter solution (50 μL) is added to triplicate wells of a 96 well flat bottomed microtiter plate. RPMI (50 μL) also is added to control wells.
4. C8166 cells (5×10^4) in 50 μL of HEPES-buffered RPMI 1640 (pH=7.2), 10% heat inactivated fetal calf serum (FCS), […] gentamicin (complete media) are added to all wells.
5. Fifty times TCID50 of H9/HTLV-IIIB stock (stored in liquid nitrogen as cell culture supernatant in 50% FCS) in 100 μL of complete media is added to all wells. The infectious titer of the virus stocks is as previously determined by end point dilution on C8166 cells. The titer of stocks are stable for 6-12 months when stored at -193°.
6. Microtiter plates are then placed on level shelves of a 37°, 5% CO2 humidified incubator for 72 h.
7. Plates are then removed and centers of syncytia are counted in each well by low power phase contrast light microscopy. […] Control wells should have between 25 and 75 centers of syncytia per well.
8. Percent inhibition of syncytia formation is calculated by the formula: [formula]
The concentration of the test compound which causes a 50% inhibition of syncytia formation, i.e. the EC50, is determined by using the technique of serial dilution of the working solution at step 3 and graphically plotting the observed percent inhibition of syncytia formation against the various concentrations of the test compound.
In the following tables, assay results are listed for the exemplified compounds from the aforementioned recombinant HIV protease HPLC assay under the heading IC50 (nM) and from the cell culture assay under the heading EC50 (nM). Note that for some of the compounds listed in tables, the EC50 's have not been determined (ND).

[2] abbreviates: recombinant HIV protease, decapeptide substrate, HPLC assay.

As for `CCC(CC)NC(=O)C[C@@H](C(=O)NC[C@@H](O)[C@H](Cc1ccccc1)NC(=O)[C@@H](NC(=O)OC(C)(C)C)C(C)(C)C)C(C)(C)C` [Entry 1], at HIV protease (setting [2]), the IC50 worked out at 100 nM.

In the case of `CCC(CC)NC(=O)C[C@@H](C(=O)NC[C@@H](O)[C@H](Cc1ccccc1)NC(=O)[C@H](CC(=O)O)NC(=O)OC(C)(C)C)C(C)(C)C` [Entry 2], the IC50 on HIV protease (setting [2]) turned out to be 90 nM. For `CCC(CC)NC(=O)C[C@@H](C(=O)NC[C@@H](O)[C@H](Cc1ccccc1)NC(=O)[C@H](CC(N)=O)NC(=O)CCN1CCCCC1)C(C)(C)C` [Entry 3], the IC50 at HIV protease (setting [2]) was 88 nM.

`CCC(CC)NC(=O)C[C@@H](C(=O)NC[C@@H](O)[C@H](Cc1ccccc1)NC(=O)[C@@H](NC(=O)OC(C)(C)C)[C@@H](C)C(=O)OCc1ccccc1)C(C)(C)C` [Entry 4]: the IC50 on HIV protease (setting [2]) worked out at 80 nM. `CCC(CC)NC(=O)C[C@@H](C(=O)NC[C@@H](O)[C@H](Cc1ccccc1)NC(=O)[C@H](CC(N)=O)NC(=O)C1Cc2ccccc2CN1)C(C)(C)C` (stereo partly shown) [Entry 5]: the IC50 at HIV protease (setting [2]) worked out at 32 nM. For `CCC(CC)NC(=O)C[C@@H](C(=O)NC[C@@H](O)[C@H](Cc1ccccc1)NC(=O)[C@H](CO)NC(=O)c1ccc2ccccc2n1)C(C)(C)C` [Entry 6], the EC50 in experiment [1] is 420 nM. The IC50 at HIV protease (setting [2]) was 27 nM.

For the compound `CCC(CC)NC(=O)C[C@@H](C(=O)NC[C@@H](O)[C@H](Cc1ccccc1)NC(=O)[C@H](CC(N)=O)NC(=O)c1nccc2ccccc12)C(C)(C)C` [Entry 7], the IC50 on HIV protease (setting [2]) worked out at 20 nM. On to `CCC(CC)NC(=O)C[C@@H](C(=O)NC[C@@H](O)[C@H](Cc1ccccc1)NC(=O)[C@H](CCC(N)=O)NC(=O)OCc1ccccc1)C(C)(C)C` [Entry 8], for which, on HIV protease (setting [2]), the IC50 worked out at 19 nM.

For the compound `CCC(CC)NC(=O)C[C@@H](C(=O)NC[C@@H](O)[C@H](Cc1ccccc1)NC(=O)[C@H](CC(N)=O)NC(=O)CCc1ccccc1)C(C)(C)C` [Entry 9], the EC50 in experiment [1] turned out to be 1900 nM. In addition, the IC50 on HIV protease (setting [2]) was determined as 15 nM. `CCC(CC)NC(=O)C[C@@H](C(=O)NC[C@@H](O)[C@H](Cc1ccccc1)NC(=O)[C@H](CC(N)=O)NC(=O)c1cccc2cccnc12)C(C)(C)C` [Entry 10]: the EC50 in experiment [1] amounted to 270 nM. In addition, the IC50 on HIV protease (setting [2]) worked out at 15 nM. Turning to `CCC(CC)NC(=O)C[C@@H](C(=O)NC[C@@H](O)[C@H](Cc1ccccc1)NC(=O)[C@H](CC(N)=O)NC(=O)c1cc2ccccc2n1C)C(C)(C)C` [Entry 11], the EC50 in experiment [1] came out at 660 nM. Further, the IC50 on HIV protease (setting [2]) turned out to be 14 nM.

Regarding `CCC(CC)NC(=O)C[C@@H](C(=O)NC[C@@H](O)[C@H](Cc1ccccc1)NC(=O)[C@H](CC(N)=O)NC(=O)CCCCc1ccccc1)C(C)(C)C` [Entry 12], the IC50 on HIV protease (setting [2]) was 13 nM. For `CCC(CC)NC(=O)C[C@@H](C(=O)NC[C@@H](O)[C@H](Cc1ccccc1)NC(=O)[C@H](C(C)C)N(C)C(=O)OCc1ccccc1)C(C)(C)C` [Entry 13], in experiment [1], the EC50 stood at 1900 nM. In addition, on HIV protease (setting [2]), the IC50 stood at 12 nM. In the case of `CCC(CC)NC(=O)C[C@@H](C(=O)NC[C@@H](O)[C@H](Cc1ccccc1)NC(=O)[C@H](CC(N)=O)NC(=O)NCc1ccccc1)C(C)(C)C` [Entry 14], at HIV protease (setting [2]), the IC50 was 11 nM. `CCC(CC)NC(=O)C[C@@H](C(=O)NC[C@@H](O)[C@H](Cc1ccccc1)NC(=O)[C@H](CC(N)=O)NC(=O)c1ccnc2ccccc12)C(C)(C)C` [Entry 15]: the EC50 in experiment [1] was 450 nM. The IC50 at HIV protease (setting [2]) was 9 nM. As for `CCC(CC)NC(=O)C[C@@H](C(=O)NC[C@@H](O)[C@H](Cc1ccccc1)NC(=O)[C@@H](NC(=O)OC(C)(C)C)[C@@H](C)C(=O)O)C(C)(C)C` [Entry 16], the IC50 on HIV protease (setting [2]) is 7 nM. Turning to `CCC(CC)NC(=O)C[C@@H](C(=O)NC[C@@H](O)[C@H](Cc1ccccc1)NC(=O)[C@H](CC(N)=O)NC(=O)CNc1ccccc1)C(C)(C)C` [Entry 19], the IC50 on HIV protease (setting [2]) is 5 nM. The same measure, in the same setting: under `CCC(CC)NC(=O)C[C@@H](C(=O)NC[C@@H](O)[C@H](Cc1ccccc1)NC(=O)[C@@H](NC(=O)c1ccc2ccccc2n1)[C@@H](C)C(=O)O)C(C)(C)C` [Entry 22] stands 5 nM; under `CCC(CC)NC(=O)C[C@@H](C(=O)NC[C@@H](O)[C@H](Cc1ccccc1)NC(=O)[C@H](CC(N)=O)NC(=O)C1Cc2ccccc2CN1)C(C)(C)C` (stereo partly shown) [Entry 24], 4 nM.

For the compound `CCC(CC)NC(=O)C[C@@H](C(=O)NC[C@@H](O)[C@H](Cc1ccccc1)NC(=O)[C@H](CC(N)=O)NC(=O)C1Cc2ccccc2N1)C(C)(C)C` (stereo partly shown) [Entry 30], the IC50 at HIV protease came out at 3 nM.

For `CCC(CC)NC(=O)C[C@@H](C(=O)NC[C@@H](O)[C@H](Cc1ccccc1)NC(=O)[C@@H](NC(=O)c1ccc2ccccc2n1)C1(C(=O)O)CCCC1)C(C)(C)C` [Entry 33], the IC50 on HIV protease (setting [2]) came out at 3 nM. Consider `CCC(CC)NC(=O)C[C@@H](C(=O)NC[C@@H](O)[C@H](Cc1ccccc1)NC(=O)[C@H](CC(N)=O)NC(=O)c1ccc2ncccc2c1)C(C)(C)C` [Entry 38], for which the IC50 on HIV protease (setting [2]) amounted to 2 nM. For the compound `CCC(CC)NC(=O)C[C@@H](C(=O)NC[C@@H](O)[C@H](Cc1ccccc1)NC(=O)[C@H](CC(N)=O)NC(=O)c1cnc2ccccc2c1)C(C)(C)C` [Entry 39], on HIV protease (setting [2]), the IC50 stood at 2 nM.

In the case of `CCC(CC)OC(=O)CC(C(=O)NC[C@@H](O)[C@H](Cc1ccccc1)NC(=O)[C@H](CC(N)=O)NC(=O)OCc1ccccc1)C(C)(C)C` (stereo partly shown) [Entry 47], on HIV protease (setting [2]), the IC50 turned out to be 51 nM. With `CCC(CC)NC(=O)CC(C(=O)NC[C@@H](O)[C@H](Cc1ccccc1)NC(=O)[C@H](CC(N)=O)NC(=O)OCc1ccccc1)C(C)C` (stereo partly shown) [Entry 48], on HIV protease (setting [2]), the IC50 turned out to be 32 nM.

`CCC(CC)NC(=O)CC(C(=O)NC[C@@H](O)[C@H](Cc1ccccc1)NC(=O)[C@H](CC(N)=O)NC(=O)c1ccc2ccccc2n1)C(C)C` (stereo partly shown) [Entry 50]: the IC50 at HIV protease (setting [2]) is 9 nM. On to `CCC(CC)NC(=O)C(CC(=O)NC[C@@H](O)[C@H](Cc1ccccc1)NC(=O)[C@@H](NC(=O)OCc1ccccc1)C(C)C)CC(C)(C)C` (stereo partly shown) [Entry 54], for which the IC50 on HIV protease (setting [2]) was 50 nM.

`CC(C)[C@H](NC(=O)OCc1ccccc1)C(=O)N[C@@H](Cc1ccccc1)[C@H](O)CNC(=O)C1CCCCC1C(=O)NCC(C)(C)C` (stereo partly shown) [Entry 55]: the IC50 on HIV protease (setting [2]) was 66 nM. Same read-out and setting: with `CCCC(CCC)NC(=O)C1CCCCC1C(=O)NC[C@@H](O)[C@H](Cc1ccccc1)NC(=O)[C@@H](NC(=O)OCc1ccccc1)C(C)C` (stereo partly shown) [Entry 56] the figure was 29 nM; with `CCC(CC)NC(=O)C1CCCCC1C(=O)NC[C@@H](O)[C@H](Cc1ccccc1)NC(=O)[C@@H](NC(=O)OCc1ccccc1)C(C)C` (stereo partly shown) [Entry 57], 14 nM; with `CC(C)OC(=O)C[C@@H](C(=O)NC[C@@H](O)[C@H](Cc1ccccc1)NC(=O)[C@@H](NC(=O)c1ccc2ccccc2n1)[C@@H](C)O)C(C)(C)C` [Entry 58, 3(R)-tert-butyl-4-{2(R)-hydroxy-4-phenyl-3(S)-{[N-(2-quinolylcarbonyl)threonyl]-amino}butylamino}-4-oxobutyric acid isopropyl ester], 46 nM. In the case of `CCC(CC)NC(=O)C[C@H](C(=O)NC[C@@H](O)[C@H](Cc1ccccc1)NC(=O)[C@@H](NC(=O)OCc1ccccc1)C(C)(C)C)C(C)(C)C` [Entry 60], on HIV protease (setting [2]), the IC50 is 29 nM.

`CCC(CC)NC(=O)[C@H](CC(=O)NC[C@@H](O)[C@H](Cc1ccccc1)NC(=O)[C@@H](NC(=O)OCc1ccccc1)C(C)C)C(C)(C)C` [Entry 61]: the IC50 on HIV protease (setting [2]) turned out to be 13 nM. On to `CCC(CC)NC(=O)C[C@@H](C(=O)NC[C@@H](O)[C@H](Cc1ccc(O)cc1)NC(=O)[C@@H](NC(=O)c1ccc2ccccc2n1)[C@@H](C)O)C(C)(C)C` [Entry 62, N^1-(1-ethylpropyl)-N^4 -{3(S)-{[N-(2-quinolylcarbonyl)-threonyl]amino}-2(R)-hydroxy-4-(4-hydroxyphenyl)butyl}-3(R)-tert-butylbutanediamide], for which the IC50 at HIV protease (setting [2]) is 61 nM.

Source of the values: patent US5545640A, “Protease inhibiting succinic acid derivatives” (Bio-Mega/Boehringer Ingeleheim Research Inc., priority 1995, dated 1996).
